# Results reported in PubChem BioAssay (NCI).
#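 How tested: cells in 96-well plates exposed to compound for 48 hours at five concentrations. Here, GI50 denotes the concentration required for 50% inhibition of growth. TGI is the concentration that stops growth completely.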
# Columns and labels:
# Test in all cases: inhibition of tumour cell growth, NCI panel, 48 h
# SNB-75 CNS = system: SNB-75 CNS
# RXF 393 renal = system: RXF 393 renal
# T-47D breast = system: T-47D breast
# HCC-2998 colon = system: HCC-2998 colon
# U251 CNS = system: U251 CNS
# RPMI-8226 leukemia = system: RPMI-8226 leukemia
# MCF7 breast = system: MCF7 breast
# OVCAR-4 ovarian = system: OVCAR-4 ovarian
# SF-295 CNS = system: SF-295 CNS
# UO-31 renal = system: UO-31 renal
# HOP-92 NSCLC = system: HOP-92 NSCLC
# LOX IMVI melanoma = system: LOX IMVI melanoma
# MDA-MB-231 breast = system: MDA-MB-231 breast
# MDA-MB-435 = system: MDA-MB-435
# A498 renal = system: A498 renal
# OVCAR-3 ovarian = system: OVCAR-3 ovarian
# NCI/ADR-RES ovarian = system: NCI/ADR-RES ovarian
# HS 578T breast = system: HS 578T breast
# MOLT-4 leukemia = system: MOLT-4 leukemia
# A549 NSCLC = system: A549 NSCLC
# BT-549 breast = system: BT-549 breast
# PC-3 prostate = system: PC-3 prostate
# SK-MEL-28 melanoma = system: SK-MEL-28 melanoma
# SK-MEL-5 melanoma = system: SK-MEL-5 melanoma
# UACC-257 melanoma = system: UACC-257 melanoma
# SNB-19 CNS = system: SNB-19 CNS
# SR leukemia = system: SR leukemia
# DU-145 prostate = system: DU-145 prostate
# CCRF-CEM leukemia = system: CCRF-CEM leukemia
# SN12C renal = system: SN12C renal
# UACC-62 melanoma = system: UACC-62 melanoma
# OVCAR-8 ovarian = system: OVCAR-8 ovarian
# NCI-H226 lung = system: NCI-H226 lung
# SF-268 CNS = system: SF-268 CNS
# IGROV1 ovarian = system: IGROV1 ovarian
# M14 melanoma = system: M14 melanoma
# 786-0 renal = system: 786-0 renal
# HL-60(TB) leukemia = system: HL-60(TB) leukemia
# COLO 205 colon = system: COLO 205 colon
# HOP-62 NSCLC = system: HOP-62 NSCLC
# OVCAR-5 ovarian = system: OVCAR-5 ovarian
# KM12 colon = system: KM12 colon
# HCT-15 colon = system: HCT-15 colon
# SF-539 CNS = system: SF-539 CNS
# SK-MEL-2 melanoma = system: SK-MEL-2 melanoma
# HT29 colon = system: HT29 colon
# MALME-3M melanoma = system: MALME-3M melanoma
# K-562 leukemia = system: K-562 leukemia
# ACHN renal = system: ACHN renal
# TK-10 renal = system: TK-10 renal
# SK-OV-3 ovarian = system: SK-OV-3 ovarian
# SW-620 colon = system: SW-620 colon
# NCI-H460 lung = system: NCI-H460 lung
# NCI-H522 lung = system: NCI-H522 lung
# NCI-H23 lung = system: NCI-H23 lung
# HCT-116 colon = system: HCT-116 colon
# CAKI-1 renal = system: CAKI-1 renal
structure (smiles),measurement,setting,value
COc1ccc(Nc2ccnc(N3CCN(c4ccnc5cc(Cl)ccc45)CC3)n2)cc1,GI50,SNB-75 CNS,1400 nM
same,TGI,SNB-75 CNS,4820 nM
same,GI50,RXF 393 renal,1310 nM
same,TGI,RXF 393 renal,6600 nM
same,GI50,T-47D breast,1390 nM
same,TGI,T-47D breast,6990 nM
same,GI50,HCC-2998 colon,2730 nM
same,TGI,HCC-2998 colon,> 55400 nM
same,GI50,U251 CNS,1170 nM
same,TGI,U251 CNS,11500 nM
same,GI50,RPMI-8226 leukemia,1040 nM
same,TGI,RPMI-8226 leukemia,3880 nM
same,GI50,MCF7 breast,1010 nM
same,TGI,MCF7 breast,7320 nM
same,GI50,OVCAR-4 ovarian,1340 nM
same,TGI,OVCAR-4 ovarian,> 100000 nM
same,GI50,SF-295 CNS,267 nM
same,TGI,SF-295 CNS,1080 nM
same,GI50,UO-31 renal,629 nM
same,TGI,UO-31 renal,4290 nM
same,GI50,HOP-92 NSCLC,320 nM
same,TGI,HOP-92 NSCLC,4500 nM
same,GI50,LOX IMVI melanoma,884 nM
same,TGI,LOX IMVI melanoma,5230 nM
same,GI50,MDA-MB-231 breast,1510 nM
same,TGI,MDA-MB-231 breast,> 29800 nM
same,GI50,MDA-MB-435,227 nM
same,TGI,MDA-MB-435,707 nM
same,GI50,A498 renal,342 nM
same,TGI,A498 renal,4170 nM
same,GI50,OVCAR-3 ovarian,729 nM
same,TGI,OVCAR-3 ovarian,15400 nM
same,GI50,NCI/ADR-RES ovarian,769 nM
same,TGI,NCI/ADR-RES ovarian,5220 nM
same,GI50,HS 578T breast,1400 nM
same,TGI,HS 578T breast,9060 nM
same,GI50,MOLT-4 leukemia,1560 nM
same,TGI,MOLT-4 leukemia,4370 nM
same,GI50,A549 NSCLC,1470 nM
same,TGI,A549 NSCLC,> 100000 nM
same,GI50,BT-549 breast,1160 nM
same,TGI,BT-549 breast,3720 nM
same,GI50,PC-3 prostate,705 nM
same,TGI,PC-3 prostate,7250 nM
same,GI50,SK-MEL-28 melanoma,1210 nM
same,TGI,SK-MEL-28 melanoma,4890 nM
same,GI50,SK-MEL-5 melanoma,579 nM
same,TGI,SK-MEL-5 melanoma,1870 nM
same,GI50,UACC-257 melanoma,1250 nM
same,TGI,UACC-257 melanoma,2840 nM
same,GI50,SNB-19 CNS,1480 nM
same,TGI,SNB-19 CNS,> 100000 nM
same,GI50,SR leukemia,601 nM
same,TGI,SR leukemia,6880 nM
same,GI50,DU-145 prostate,2590 nM
same,TGI,DU-145 prostate,> 30500 nM
same,GI50,CCRF-CEM leukemia,1740 nM
same,TGI,CCRF-CEM leukemia,> 34200 nM
same,GI50,SN12C renal,1670 nM
same,TGI,SN12C renal,> 100000 nM
same,GI50,UACC-62 melanoma,292 nM
same,TGI,UACC-62 melanoma,1430 nM
same,GI50,OVCAR-8 ovarian,1680 nM
same,TGI,OVCAR-8 ovarian,> 21700 nM
same,GI50,NCI-H226 lung,1410 nM
same,TGI,NCI-H226 lung,6090 nM
same,GI50,SF-268 CNS,2310 nM
same,TGI,SF-268 CNS,> 100000 nM
same,GI50,IGROV1 ovarian,696 nM
same,GI50,M14 melanoma,768 nM
same,TGI,M14 melanoma,3280 nM
same,GI50,786-0 renal,1400 nM
same,TGI,786-0 renal,6870 nM
same,GI50,HL-60(TB) leukemia,1140 nM
same,TGI,HL-60(TB) leukemia,7180 nM
same,GI50,COLO 205 colon,1380 nM
same,TGI,COLO 205 colon,3800 nM
same,GI50,HOP-62 NSCLC,1270 nM
same,TGI,HOP-62 NSCLC,> 29000 nM
same,GI50,OVCAR-5 ovarian,2150 nM
same,TGI,OVCAR-5 ovarian,> 100000 nM
same,GI50,KM12 colon,1010 nM
same,TGI,KM12 colon,4160 nM
same,GI50,HCT-15 colon,830 nM
same,TGI,HCT-15 colon,> 100000 nM
same,GI50,SF-539 CNS,968 nM
same,TGI,SF-539 CNS,3260 nM
same,GI50,SK-MEL-2 melanoma,1030 nM
same,TGI,SK-MEL-2 melanoma,3270 nM
same,GI50,HT29 colon,542 nM
same,TGI,HT29 colon,4920 nM
same,GI50,MALME-3M melanoma,1110 nM
same,TGI,MALME-3M melanoma,4650 nM
same,GI50,K-562 leukemia,444 nM
same,TGI,K-562 leukemia,> 20800 nM
same,GI50,ACHN renal,955 nM
same,TGI,ACHN renal,> 24500 nM
same,GI50,TK-10 renal,2180 nM
same,TGI,TK-10 renal,7950 nM
same,GI50,SK-OV-3 ovarian,2620 nM
same,TGI,SK-OV-3 ovarian,> 100000 nM
same,GI50,SW-620 colon,739 nM
same,TGI,SW-620 colon,> 73100 nM
same,GI50,NCI-H460 lung,837 nM
same,TGI,NCI-H460 lung,4680 nM
same,GI50,NCI-H522 lung,321 nM
same,TGI,NCI-H522 lung,1750 nM
same,GI50,NCI-H23 lung,1650 nM
same,TGI,NCI-H23 lung,9400 nM
same,GI50,HCT-116 colon,485 nM
same,TGI,HCT-116 colon,3270 nM
same,GI50,CAKI-1 renal,576 nM
same,TGI,CAKI-1 renal,3920 nM
